Source: patent publication US7455855B2, “Delivering substance and drug delivery system using the same” (Santen Pharmaceutical Co., Ltd., priority 2000, dated 2008)
Structures can show the parent of a compound that is named as a salt. Where two headings read alike, the source gives them in different places.

Experiments:
[1] = 3H-labelled, 100 μl/eye into vitreous body, moment method, 1 to 21 days, average of three samples
[2] = Intraocular kinetic tests by fluorophotometry after injection into the vitreous body; assay type: in vivo, white rabbits; details: for half-life: rabbit, other: injection into the vitreous body (intravitreal)
Procedure: Intraocular kinetic tests were conducted by the following methods using the delivering substances A and B containing a fluorescence.
The same procedure as mentioned above was repeated except that fluorescein sodium was used instead of the delivering substances A and B to prepare a 10 μg/ml injection containing fluorescein sodium for comparison.
1) A mixed solution containing an aqueous ketamine hydrochloride solution (50 mg/ml) and an aqueous xylazine hydrochloride (50 mg/ml) in a ratio of 7:3 was administered intramuscularly to white rabbits to anesthetize.
2) A tropicamide (0.5%)/phenylephrine hydrochloride (0.5%) ophthalmic solution was instilled into both eyes to cause mydriasis in the both eyes.
3) The both eyes were anesthetized with an oxybuprocaine hydrochloride (0.5%) ophthalmic solution.
4) Each of the above-mentioned injection was administered to the center of a vitreous body from an ocular pars plana with a syringe equipped with a 30G needle.
5) Intraocular fluorescence intensity was measured with a fluorophotometry apparatus after the administration to the vitreous body at 1, 4, 7, 15, 35 and 56 days. A calibration curves were prepared, changes in concentration in the vitreous body and a retina were determined, and respective half-lives were calculated. The above-mentioned operations 1) and 2) were carried out before the intraocular fluorescence intensity was measured, too.
The numerical values in Tables 1 and 2 are the average of three samples respectively.

| Compound | Half-life (days) in the retina ([1]; retina) [days] | Half-life (days) in the vitreous body ([1]; vitreous body) [days] | half-life ([2]; retina, restated in hours in the text, read-out: half-life in the retina) [days] | half-life in the vitreous body ([2]; vitreous body, restated in hours in the text) | half-life ([2]; white, 10 μg/ml, retina, injection into the vitreous body, moment method from data measured 1 to 56 days after injection, average of three samples, read-out: Half-life (days) in the retina) [days] | half-life ([2]; white, vitreous body, injection into the vitreous body, moment method from data measured 1 to 35 days after injection, average of three samples, read-out: Half-life (days) in the vitreous body) [days] |
| --- | --- | --- | --- | --- | --- | --- |
| C[C@]12N[C@H](Cc3ccccc31)c1ccccc12 [Comparative substance X, [5R,10S]-(+)-5-methyl-10,11-dihydro-5H-dibenzo[a,d]cycloheptene-5,10-imine maleate] | 0.6 | 0.5 |  |  |  |  |
| O=C1OC2(c3ccc(O)cc3Oc3cc(O)ccc32)c2ccccc21 [Fluorescein sodium, fluorescein sodium] |  |  | < 0.1 | less than five hours | < 0.1 | < 0.2 |
